From article PMC11412156 (Journal of medicinal chemistry, 2024) come the findings set out here.

Common to all, as to assay type: biochemical
The target in one experiment is HDAC1 (Homo sapiens, UniProt Q13547). Put plainly: HDAC enzyme-based fluorogenic assay, HDAC1. The settings on record: read-out: HDAC1 IC50; mean of at least three experiments.
A further experiment addresses HDAC2 (Homo sapiens, UniProt Q92769). Put plainly: HDAC enzyme-based fluorogenic assay, HDAC2. The settings on record: read-out: HDAC2 IC50; mean of at least three experiments.
The target of the next experiment is T1, HDAC11 (Homo sapiens, UniProt Q96DB2).
T1 sequence (Q96DB2 1-347): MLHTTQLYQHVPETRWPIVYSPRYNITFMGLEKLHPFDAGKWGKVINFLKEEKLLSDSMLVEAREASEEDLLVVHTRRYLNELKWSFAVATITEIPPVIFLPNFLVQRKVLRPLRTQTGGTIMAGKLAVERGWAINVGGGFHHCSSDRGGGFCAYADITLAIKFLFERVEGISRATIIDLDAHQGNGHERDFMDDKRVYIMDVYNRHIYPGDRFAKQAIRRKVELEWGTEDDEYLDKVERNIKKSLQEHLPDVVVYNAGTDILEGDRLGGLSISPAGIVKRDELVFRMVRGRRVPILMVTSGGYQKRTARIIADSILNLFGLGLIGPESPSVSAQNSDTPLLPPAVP
Put plainly: HDAC enzyme-based fluorogenic assay, HDAC11. Conditions: read-out: HDAC11 IC50; mean of at least three experiments.

Another experiment concerns the target T2, HDAC8 (Homo sapiens, UniProt Q9BY41).
T2 sequence (Q9BY41 1-377): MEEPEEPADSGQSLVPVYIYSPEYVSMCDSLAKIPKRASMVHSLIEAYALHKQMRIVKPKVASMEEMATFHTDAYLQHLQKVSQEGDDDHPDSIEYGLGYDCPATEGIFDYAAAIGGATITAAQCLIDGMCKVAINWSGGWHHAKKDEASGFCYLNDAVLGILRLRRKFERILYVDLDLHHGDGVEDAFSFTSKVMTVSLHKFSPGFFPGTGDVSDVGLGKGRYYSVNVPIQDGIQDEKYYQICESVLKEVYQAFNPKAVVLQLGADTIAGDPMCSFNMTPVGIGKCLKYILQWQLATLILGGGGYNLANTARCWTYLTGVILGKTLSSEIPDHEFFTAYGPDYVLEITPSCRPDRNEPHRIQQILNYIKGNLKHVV
Put plainly: HDAC enzyme-based fluorogenic assay, HDAC8. Conditions: read-out: HDAC8 IC50; mean of at least three experiments.

The target in another experiment is HDAC3 (Homo sapiens, UniProt O15379). Put plainly: HDAC enzyme-based fluorogenic assay, HDAC3. Conditions: read-out: HDAC3 IC50; mean of at least three experiments.
Sequence of HDAC3 (O15379 whole entry): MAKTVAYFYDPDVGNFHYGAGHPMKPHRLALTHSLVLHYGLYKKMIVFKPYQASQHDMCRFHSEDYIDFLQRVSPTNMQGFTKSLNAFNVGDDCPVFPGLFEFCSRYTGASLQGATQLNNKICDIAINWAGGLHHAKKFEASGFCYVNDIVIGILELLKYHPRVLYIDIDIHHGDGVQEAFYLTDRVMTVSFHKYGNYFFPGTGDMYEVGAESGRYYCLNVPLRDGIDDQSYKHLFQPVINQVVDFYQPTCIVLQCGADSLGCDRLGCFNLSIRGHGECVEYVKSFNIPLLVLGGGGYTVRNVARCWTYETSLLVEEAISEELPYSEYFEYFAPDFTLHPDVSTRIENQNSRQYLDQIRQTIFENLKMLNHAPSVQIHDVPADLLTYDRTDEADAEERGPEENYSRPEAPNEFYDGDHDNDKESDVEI
Sequence of HDAC3 (Q9Y618 395-489 partner limits assumed): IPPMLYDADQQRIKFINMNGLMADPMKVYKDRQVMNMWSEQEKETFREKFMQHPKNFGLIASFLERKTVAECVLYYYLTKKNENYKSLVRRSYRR
A further experiment has as its target T3, HDAC6 (Homo sapiens, UniProt Q9UBN7).
T3 sequence (Q9UBN7 1-1215): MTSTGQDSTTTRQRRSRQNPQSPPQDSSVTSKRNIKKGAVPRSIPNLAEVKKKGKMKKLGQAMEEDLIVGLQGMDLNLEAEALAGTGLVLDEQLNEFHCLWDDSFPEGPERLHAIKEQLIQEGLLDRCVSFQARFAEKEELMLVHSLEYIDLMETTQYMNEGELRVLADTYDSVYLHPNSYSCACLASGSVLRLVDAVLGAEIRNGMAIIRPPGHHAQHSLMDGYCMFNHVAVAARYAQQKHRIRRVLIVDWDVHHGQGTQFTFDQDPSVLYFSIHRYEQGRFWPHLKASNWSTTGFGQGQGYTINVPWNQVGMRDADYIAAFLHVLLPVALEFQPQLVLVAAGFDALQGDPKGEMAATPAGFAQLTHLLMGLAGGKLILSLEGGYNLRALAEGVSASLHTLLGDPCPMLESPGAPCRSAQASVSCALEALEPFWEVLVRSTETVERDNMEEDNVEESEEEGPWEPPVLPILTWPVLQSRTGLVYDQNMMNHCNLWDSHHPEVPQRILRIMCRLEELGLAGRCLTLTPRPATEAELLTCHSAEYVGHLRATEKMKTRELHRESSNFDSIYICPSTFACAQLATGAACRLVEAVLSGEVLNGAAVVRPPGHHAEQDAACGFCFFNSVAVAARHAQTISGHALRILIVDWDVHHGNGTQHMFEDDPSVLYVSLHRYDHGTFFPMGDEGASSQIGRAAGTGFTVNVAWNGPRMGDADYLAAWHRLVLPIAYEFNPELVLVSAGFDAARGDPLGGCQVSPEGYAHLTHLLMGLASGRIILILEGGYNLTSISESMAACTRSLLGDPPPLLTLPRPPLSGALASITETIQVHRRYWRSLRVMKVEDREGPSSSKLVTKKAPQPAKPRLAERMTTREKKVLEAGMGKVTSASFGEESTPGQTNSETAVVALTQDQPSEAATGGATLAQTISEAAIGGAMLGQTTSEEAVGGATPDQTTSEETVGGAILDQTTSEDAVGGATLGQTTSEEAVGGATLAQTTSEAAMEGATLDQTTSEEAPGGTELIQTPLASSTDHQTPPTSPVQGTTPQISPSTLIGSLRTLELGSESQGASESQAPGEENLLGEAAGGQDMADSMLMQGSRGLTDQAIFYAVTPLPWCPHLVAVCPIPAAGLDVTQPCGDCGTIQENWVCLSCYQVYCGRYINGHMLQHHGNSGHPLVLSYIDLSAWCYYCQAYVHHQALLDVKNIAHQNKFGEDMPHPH
The experiment can be described thus: HDAC enzyme-based fluorogenic assay, HDAC6. The settings on record: for HDAC6 inhibitor rate: final concentration of 2 μM, preliminary screen; for IC50: read-out: HDAC6 IC50, mean of at least three experiments.

Sequence of HDAC1 (Q13547 whole entry): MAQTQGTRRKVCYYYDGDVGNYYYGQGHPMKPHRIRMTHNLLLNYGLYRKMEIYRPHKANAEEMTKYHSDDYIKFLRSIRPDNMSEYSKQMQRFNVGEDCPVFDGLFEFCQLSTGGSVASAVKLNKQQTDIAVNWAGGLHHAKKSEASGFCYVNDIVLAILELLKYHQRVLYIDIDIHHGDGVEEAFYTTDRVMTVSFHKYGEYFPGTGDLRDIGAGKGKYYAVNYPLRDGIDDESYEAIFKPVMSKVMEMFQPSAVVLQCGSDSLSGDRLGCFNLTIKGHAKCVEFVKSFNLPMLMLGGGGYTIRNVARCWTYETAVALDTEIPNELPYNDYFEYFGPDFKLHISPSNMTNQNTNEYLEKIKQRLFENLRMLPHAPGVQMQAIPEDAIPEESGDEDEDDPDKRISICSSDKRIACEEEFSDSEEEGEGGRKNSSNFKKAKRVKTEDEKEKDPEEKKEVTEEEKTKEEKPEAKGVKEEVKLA
Sequence of HDAC2 (Q92769 whole entry): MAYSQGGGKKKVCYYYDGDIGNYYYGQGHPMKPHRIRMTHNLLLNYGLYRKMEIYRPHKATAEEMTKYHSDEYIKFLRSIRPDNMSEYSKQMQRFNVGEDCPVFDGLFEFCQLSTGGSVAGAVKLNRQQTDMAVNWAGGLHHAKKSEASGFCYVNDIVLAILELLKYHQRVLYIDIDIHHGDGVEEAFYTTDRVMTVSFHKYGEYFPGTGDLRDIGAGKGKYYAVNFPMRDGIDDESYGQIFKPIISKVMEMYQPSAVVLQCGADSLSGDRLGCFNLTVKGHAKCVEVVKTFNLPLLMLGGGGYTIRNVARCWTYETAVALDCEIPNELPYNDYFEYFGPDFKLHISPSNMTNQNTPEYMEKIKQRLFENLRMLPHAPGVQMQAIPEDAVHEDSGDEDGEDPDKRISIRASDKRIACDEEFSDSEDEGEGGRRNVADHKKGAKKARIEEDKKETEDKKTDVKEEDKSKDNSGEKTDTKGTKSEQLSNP

For orientation: IC50 means the concentration needed to halve the response being measured. As to `CC12CC3CC(C)(C1)CC(Nc1c(Nc4ccc(C(=O)N5CCC[C@H](C(=O)NCCCCCCC(=O)NO)C5)cc4)c(=O)c1=O)(C3)C2` [Compound 40d, (S)-1-(4-((2-(((1r,3R,5S,7r)-3,5-Dimethyladamantan-1-yl)amino)-3,4-dioxocyclobut-1-en-1-yl)amino)benzoyl)-N-(7-(hydroxyamino)-7-oxoheptyl)piperidine-3-carboxamide], the IC50 came out at 0.415 µM on HDAC1; 2.53 µM at HDAC2; 0.241 µM on HDAC11; 0.158 µM on HDAC8; 1.45 µM on HDAC3; 0.162 µM on HDAC6. The HDAC6 inhibitor rate at HDAC6 was found to be 99.66%.

Consider `C[C@]12CC3CC(Nc4c(Nc5ccc(C(=O)N6CCC[C@H](C(=O)NCCCCCC(=O)NO)C6)cc5)c(=O)c4=O)(C1)C[C@@](C)(C3)C2` [Compound 40c, (S)-1-(4-((2-(((1r,3R,5S,7r)-3,5-Dimethyladamantan-1-yl)amino)-3,4-dioxocyclobut-1-en-1-yl)amino)benzoyl)-N-(6-(hydroxyamino)-6-oxohexyl)piperidine-3-carbo-xamide], for which the IC50 was 1.03 µM on HDAC1; 3.1 µM on HDAC2; 0.084 µM on HDAC11; 0.52 µM on HDAC8; 4.15 µM at HDAC3; 0.282 µM on HDAC6. The HDAC6 inhibitor rate on HDAC6 was determined as 98.49%.
